The record followed here is article PMC3742645, “The Effect of Polyhydroxylated Alkaloids on Maltase-Glucoamylase” (PLoS ONE, 2013).

The target of this test is T1, ntMGAM (purchased as maltase-glucoamylase from rice, EC 3.2.1.20, Sigma G9259).
T1 construct: gene Os06g0675700; commercial native rice alpha-glucosidase; no human protein source or expression described
As to the kind of experiment: NMR transverse relaxation (CPMG) titration. The format is binding. Conditions: pH 6.8, 310 K, 10 mM sodium phosphate, 10% D2O, protein 18 μM; signal H-9; unit printed as M^-1 under a Kd heading. An excerpt: NMR transverse relaxation (CPMG) titration on ntMGAM (purchased as maltase-glucoamylase from rice, EC 3.2.1.20, Sigma G9259)

Turning to `C[C@H]1O[C@H](O[C@H]2[C@H](O)[C@@H](O)[C@@H](O[C@H]3[C@H](O)[C@@H](O)C(O)O[C@@H]3CO)O[C@@H]2CO)[C@H](O)[C@@H](O)[C@@H]1N[C@H]1C=C(CO)[C@@H](O)[C@H](O)[C@H]1O` (stereo partly shown) [acarbose], the “K d(M^-1)” value is “(5.4±0.1)×10^−5 M^−1”.
